According to PMC11005823 (Frontiers in Microbiology, 2024):
Positions count from the first letter of the chain named. Where “and” joins values, the source holds several entries; their conditions need not be identical. Equal values may be shown once. Read-outs that look alike come from different tables or passages of the source.

Tests used:
EcoFiu (Fiu_A694C-FM) = biological target: T1, EcoFiu (Fiu_A694C-FM) (Escherichia coli, UniProt P75780, A694C); assay: biochemical; assay type: binding
T1 sequence (P75780 32-760 A694C): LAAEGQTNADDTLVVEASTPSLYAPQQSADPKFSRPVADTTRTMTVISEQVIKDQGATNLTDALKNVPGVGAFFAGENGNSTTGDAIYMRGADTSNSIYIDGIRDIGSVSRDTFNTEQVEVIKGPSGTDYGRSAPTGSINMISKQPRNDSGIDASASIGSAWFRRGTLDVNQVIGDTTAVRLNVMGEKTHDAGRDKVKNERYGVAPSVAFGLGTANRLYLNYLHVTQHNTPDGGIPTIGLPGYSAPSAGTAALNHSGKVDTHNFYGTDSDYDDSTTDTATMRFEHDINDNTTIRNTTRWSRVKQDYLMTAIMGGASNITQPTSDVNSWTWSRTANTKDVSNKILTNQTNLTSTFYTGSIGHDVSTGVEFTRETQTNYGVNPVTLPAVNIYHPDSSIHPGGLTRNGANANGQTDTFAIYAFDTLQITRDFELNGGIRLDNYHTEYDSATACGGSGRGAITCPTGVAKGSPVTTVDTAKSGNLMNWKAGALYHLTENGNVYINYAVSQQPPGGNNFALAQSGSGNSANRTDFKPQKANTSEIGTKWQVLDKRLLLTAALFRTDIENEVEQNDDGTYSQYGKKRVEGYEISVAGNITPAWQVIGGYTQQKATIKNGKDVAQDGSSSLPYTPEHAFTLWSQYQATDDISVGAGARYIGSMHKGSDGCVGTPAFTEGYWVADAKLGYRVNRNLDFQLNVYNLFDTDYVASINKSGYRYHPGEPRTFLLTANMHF

[1] = system: OKN359/pFiu Fiu^+, FepA^−, Cir-; conditions: summary in words; strains exclusively expressing Fiu
AbaPirA = biological target: T2, AbaPirA (Acinetobacter baumannii, UniProt D0C8V9); conditions: read-out: apparent KD; AbaPirA sensor; NB = no binding
T2 sequence (D0C8V9 25-754): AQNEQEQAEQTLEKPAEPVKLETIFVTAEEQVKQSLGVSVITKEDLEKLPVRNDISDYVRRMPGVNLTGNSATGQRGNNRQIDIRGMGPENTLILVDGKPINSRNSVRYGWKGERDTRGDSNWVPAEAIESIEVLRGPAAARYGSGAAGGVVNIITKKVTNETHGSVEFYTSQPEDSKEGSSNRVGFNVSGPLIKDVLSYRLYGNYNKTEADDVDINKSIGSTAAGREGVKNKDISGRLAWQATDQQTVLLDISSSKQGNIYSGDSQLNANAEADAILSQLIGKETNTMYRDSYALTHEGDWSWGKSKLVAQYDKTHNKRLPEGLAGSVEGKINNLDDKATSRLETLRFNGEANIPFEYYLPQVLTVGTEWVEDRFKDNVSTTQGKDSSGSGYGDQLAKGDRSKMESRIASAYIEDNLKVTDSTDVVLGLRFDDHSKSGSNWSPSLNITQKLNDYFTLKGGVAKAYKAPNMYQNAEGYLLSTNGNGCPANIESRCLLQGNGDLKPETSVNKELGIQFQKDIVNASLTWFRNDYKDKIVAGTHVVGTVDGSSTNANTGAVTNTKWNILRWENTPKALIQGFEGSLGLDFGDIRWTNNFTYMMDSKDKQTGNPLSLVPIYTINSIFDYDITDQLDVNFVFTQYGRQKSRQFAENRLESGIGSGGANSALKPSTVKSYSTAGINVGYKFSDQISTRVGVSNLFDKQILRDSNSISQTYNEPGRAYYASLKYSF

AbaPiuA = biological target: T3, AbaPiuA (Acinetobacter baumannii, UniProt D0CAH3); conditions: read-out: apparent KD; AbaPiuA sensor; NB = no binding
T3 sequence (D0CAH3 29-743): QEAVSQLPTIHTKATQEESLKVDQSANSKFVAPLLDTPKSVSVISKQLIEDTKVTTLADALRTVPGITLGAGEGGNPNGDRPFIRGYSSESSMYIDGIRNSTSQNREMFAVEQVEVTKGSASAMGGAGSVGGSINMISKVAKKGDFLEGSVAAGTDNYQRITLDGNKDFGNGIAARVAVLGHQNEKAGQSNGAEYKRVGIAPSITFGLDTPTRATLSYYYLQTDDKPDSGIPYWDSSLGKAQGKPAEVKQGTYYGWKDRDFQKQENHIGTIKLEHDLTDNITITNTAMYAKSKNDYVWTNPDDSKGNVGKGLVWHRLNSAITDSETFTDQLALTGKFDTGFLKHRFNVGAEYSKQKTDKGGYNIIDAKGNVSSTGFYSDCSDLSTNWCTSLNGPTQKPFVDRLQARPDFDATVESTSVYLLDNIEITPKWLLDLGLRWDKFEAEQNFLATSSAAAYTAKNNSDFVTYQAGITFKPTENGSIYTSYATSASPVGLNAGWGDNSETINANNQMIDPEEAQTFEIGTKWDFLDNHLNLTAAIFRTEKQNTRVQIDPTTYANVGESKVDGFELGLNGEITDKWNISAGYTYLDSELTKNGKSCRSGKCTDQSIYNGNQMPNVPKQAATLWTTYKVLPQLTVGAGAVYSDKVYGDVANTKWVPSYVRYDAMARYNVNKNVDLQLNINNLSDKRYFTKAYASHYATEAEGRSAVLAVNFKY

Fiu N554C-FM = biological target: T4, Fiu N554C-FM (Escherichia coli, UniProt P75780, N554C); assay type: binding; conditions: Fiu Cys mutant N554C-FM (positive control); read-out: Affinity: apparent KD
T4 sequence (P75780 32-760 N554C): T1 sequence (P75780 32-760 A694C) with N523C, C663A

[2] = system: OKN359/pFepA Fiu^−, FepA^+, Cir-; conditions: summary in words
EcoCir = EcoCir (Escherichia coli, UniProt P17315); assay type: binding
Chain of EcoCir (P17315 26-663): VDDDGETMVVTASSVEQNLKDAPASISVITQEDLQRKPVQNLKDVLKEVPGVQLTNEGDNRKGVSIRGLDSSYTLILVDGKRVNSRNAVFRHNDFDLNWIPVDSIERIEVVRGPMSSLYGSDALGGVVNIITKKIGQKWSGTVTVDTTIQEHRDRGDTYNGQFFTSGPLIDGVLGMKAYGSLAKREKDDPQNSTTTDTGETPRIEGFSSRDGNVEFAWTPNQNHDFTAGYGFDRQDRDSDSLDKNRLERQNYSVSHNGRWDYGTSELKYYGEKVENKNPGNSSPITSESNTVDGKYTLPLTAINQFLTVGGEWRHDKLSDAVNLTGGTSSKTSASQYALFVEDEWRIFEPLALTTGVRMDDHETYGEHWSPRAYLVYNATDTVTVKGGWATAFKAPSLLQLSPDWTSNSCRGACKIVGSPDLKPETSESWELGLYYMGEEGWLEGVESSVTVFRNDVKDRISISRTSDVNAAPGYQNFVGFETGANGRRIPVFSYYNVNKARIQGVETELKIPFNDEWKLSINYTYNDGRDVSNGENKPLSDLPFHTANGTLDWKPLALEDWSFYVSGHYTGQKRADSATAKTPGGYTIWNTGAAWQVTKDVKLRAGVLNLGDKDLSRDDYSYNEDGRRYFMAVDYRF

[3] = system: OKN359/pCir Fiu^−, FepA^−, Cir^+; conditions: summary in words
EcoFepA = assay type: binding, Escherichia coli; conditions: read-out: apparent KD
AbaBauA = biological target: T5, AbaBauA (Acinetobacter baumannii, UniProt Q76HJ9); conditions: AbaBauA sensor; NB = no binding; read-out: apparent KD
T5 sequence (Q76HJ9 23-725): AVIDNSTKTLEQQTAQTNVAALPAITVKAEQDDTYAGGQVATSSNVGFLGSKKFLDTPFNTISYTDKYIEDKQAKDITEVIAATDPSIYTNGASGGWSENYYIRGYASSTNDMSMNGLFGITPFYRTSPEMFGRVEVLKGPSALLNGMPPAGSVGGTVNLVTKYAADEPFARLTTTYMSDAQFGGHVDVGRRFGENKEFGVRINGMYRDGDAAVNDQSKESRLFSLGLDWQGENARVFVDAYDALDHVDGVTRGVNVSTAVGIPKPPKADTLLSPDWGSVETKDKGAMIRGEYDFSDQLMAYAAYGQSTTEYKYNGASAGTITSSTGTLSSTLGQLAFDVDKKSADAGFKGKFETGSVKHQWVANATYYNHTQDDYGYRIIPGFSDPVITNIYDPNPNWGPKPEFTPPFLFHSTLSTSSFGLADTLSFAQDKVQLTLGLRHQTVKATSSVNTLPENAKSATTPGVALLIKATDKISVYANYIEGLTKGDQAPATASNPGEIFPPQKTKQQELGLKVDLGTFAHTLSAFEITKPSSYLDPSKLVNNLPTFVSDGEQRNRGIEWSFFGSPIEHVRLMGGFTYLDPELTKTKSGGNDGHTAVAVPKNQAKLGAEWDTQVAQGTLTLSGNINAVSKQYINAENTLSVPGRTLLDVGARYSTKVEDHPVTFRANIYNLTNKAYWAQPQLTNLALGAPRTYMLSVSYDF

[4] = apparent KD, EcoFiu sensor (Fiu_A694C-FM; FeDHBA with Fiu_N554C-FM), NB = no binding

O=C(N[C@@H](CO)C(=O)OC[C@H](NC(=O)c1cccc(O)c1[O-])C(=O)O)c1cccc([O-])c1[O-].[Fe+3] [FeEnt*, Fe(DHBS)2]
Kd (EcoFiu (Fiu_A694C-FM); [4]): 740 nM

O=C(O)c1cccc(O)c1O.O=C(O)c1cccc(O)c1O.O=C(O)c1cccc(O)c1O.[Fe+3] [FeDHBA]
transport by Fiu [1]: did not utilize | Kd (AbaPirA): 9400 ± 900 nM | Kd (AbaPiuA): 15000 ± 3000 nM | fluorescence quenching at site A694C-FM (EcoFiu (Fiu_A694C-FM); Fiu_A694C-FM): did not observe significant quenching | Kd (EcoFiu (Fiu_A694C-FM); [4]): 700 ± 100 nM | Kd (Fiu N554C-FM): 700 nM | transport by FepA [2]: transported

CC(C)(O/N=C(\C(=O)N[C@@H]1C(=O)N2C(C(=O)O)=C(C[N+]3(CCNC(=O)c4ccc(O)c(O)c4Cl)CCCC3)CS[C@H]12)c1csc(N)n1)C(=O)O.[Fe+3] [FeFDC]
Kd (AbaPirA): 6200 ± 2300 nM | Kd (EcoFiu (Fiu_A694C-FM); [4]): 500 nM | Kd (EcoFiu (Fiu_A694C-FM); read-out: apparent KD, EcoFiu sensor (Fiu_A694C-FM; FeDHBA with Fiu_N554C-FM), NB = no binding): 400 ± 500 nM | Kd (EcoCir; Cir): 60 nM | Kd (EcoCir; read-out: apparent KD, EcoCir sensor, value marked ^1): 63 ± 6 nM

CC(C)(O/N=C(\C(=O)N[C@@H]1C(=O)N2C(C(=O)[O-])=C(C[N+]3(CCNC(=O)c4ccc([O-])c([O-])c4Cl)CCCC3)CS[C@H]12)c1csc(N)n1)C(=O)O.[Fe+3] [FeFDC]
susceptibility of cells expressing only FepA [2]: not susceptible

O=C(N[C@@H](CO)C(=O)O)c1cccc(O)c1O.O=C(N[C@@H](CO)C(=O)O)c1cccc(O)c1O.O=C(N[C@@H](CO)C(=O)O)c1cccc(O)c1O.[Fe+3] [FeDHBS]
transport by Fiu [1]: did not utilize | Kd (AbaPirA): 161000 ± 40000 nM | transport by Cir [3]: weakly | Kd (EcoFiu (Fiu_A694C-FM); [4]): 100 nM and ~100 nM | Kd (EcoFiu (Fiu_A694C-FM); apparent KD, EcoFiu sensor, value marked ^1): 90 ± 0.2 nM | Kd (EcoCir; read-out: apparent KD, EcoCir sensor, NB = no binding): 7200 ± 900 nM | Kd (EcoFepA): 1600 ± 300 nM

ferric acinetobactin [FeAgn]
Kd (AbaBauA): 2100 ± 400 nM
